Seven compounds from patent US10682409B2, “Therapeutic treatment” (priority 2012, dated 2020) can be followed below.

Common to all, as to type: in vivo, human
In data set [1] the test system is patients suffering from ADHD. Kind of data set: Clinical Global Impression-Severity scale (CGI-S), Patients A-H. As to the method: In an embodiment, attentiveness is measured using the Clinical Global Impression rating scales to measure symptom severity, treatment response and the efficacy of treatments in treatment studies of patients with mental disorders (Guy, W., 1976). In an embodiment, attentiveness is measure using the Clinical Global Impression-Severity scale (“CGI-S”). In an embodiment, CGI-S is a 7-point scale that requires the clinician to rate the severity of the patient's illness at the time of assessment, relative to the clinician's past experience with patients who have the same diagnosis. Considering total clinical experience, a patient is assessed on severity of mental illness at the time of rating 1, normal, not at all ill; 2, borderline mentally ill; 3, mildly ill; 4, moderately ill; 5, markedly ill; 6, severely ill; or 7, extremely ill. In an embodiment, attentiveness is measured using the Clinical Global Impression-Improvement scale (“CGI-I”). […] In an embodiment, attentiveness is measured using the Clinical Global Impression-Efficacy Index (“CGI-E”).
(§1) The age range of the patients was from 6-15 years of age, with a mean age at the start of treatment for ADHD of 8.4 years of age. The mean age at the start of the combination treatment wherein the patient was administered an amphetamine or methylphenidate and an appetite stimulant was 10.3 years of age. The mean treatment period for the eight patients was 1,108 days with a mean of 2.55 ADHD medication changes during the treatment period. Attentiveness in the eight patients was measured using CGI-S and CGI-I. Patients weight and height velocity were measured to identify a difference in weight and height gain prior to and after addition of an appetite stimulant to the treatment for ADHD. Weight velocity was calculated by taking three time points, time 0 upon initiation of medication to treat ADHD, time 1 addition of an appetite stimulant, time 2 the last data point after initiation of combination treatment. The formula to calculate weight velocity for stimulant alone is (weightT1−weight T0)/days from Time 0 to time 1. The formula to calculate weight velocity for combination treatment is (weightT2−weight T1)/days from time 1 to time 2.

The nature of data set [2]: Examples 3-11: weight and height (velocity, percentile curve, course) of ADHD Patients A-H. The procedure: In an embodiment, a therapeutically effective amount of a therapeutic compound disclosed herein increases the weight or height of an individual is determined by an increase in the individual's weight or height velocity as compared to an individual nor receiving a therapeutic compound for appetite reduction. In an embodiment, weight and/or height velocity can be calculated by taking measurements of height and/or weight of an individual over a period of time and measuring an increase or decrease in an individual's height and/or weight over the period of time. In an embodiment, weight velocity is calculated by taking three time points, time 0 upon initiation of medication to treat ADHD, time 1 addition of an appetite stimulant, time 2 the last data point after initiation of combination treatment. In an embodiment, a formula to calculate weight and height velocity for stimulant alone is (weightT1−weight T0)/days from Time 0 to time 1. In an embodiment, a formula to calculate weight velocity for combination treatment is (weightT2−weight T1)/days from time 1 to time 2. In an embodiment, to evaluate whether weight velocity increased after addition of an appetite stimulant, the weight velocity of time 0 to time 1 is compared to the weight velocity from time 1 to time 2. In an embodiment, height velocity is calculated by taking three time points, time 0 upon initiation of medication to treat ADHD, time 1 addition of an appetite stimulant, time 2 the last data point after initiation of combination treatment. The formula to calculate height velocity for stimulant alone is (weightT1−weight T0)/days from Time 0 to time 1. The formula to calculate height velocity for combination treatment is (weightT2−weight T1)/days from time 1 to time 2. In an embodiment, to evaluate whether height velocity increased after addition of an appetite stimulant, the height velocity of time 0 to time 1 is compared to the height velocity from time 1 to time 2.
Eight patients, identified as patients A-H, that came in suffering from ADHD were treated for ADHD. […] Each patient was then prescribed an appetite simulant to be taken along with the amphetamine or methylphenidate. The patients' weight, height and attentiveness were then followed during the course of treatment.
as §1

Data set [3] has as its system patient suffering from ADHD. Kind of data set: Example 1: patient suffering from ADHD treated with and without an appetite stimulant (appetite, blood glucose, attentiveness by CGI-S and CGI-I). An excerpt: A patient suffering from ADHD is prescribed and administered an amphetamine to treat ADHD. The patient takes the amphetamine once a day in the morning or afternoon. […] As a result, the glucose level measured in the blood increases as shown in FIG. 1 and the patient's attentiveness recovers as measured by CGI-S and CGI-I. By taking the appetite stimulant during the time when the patient was awake, the patient increased their caloric intake during times when the patient needed to maintain their attentiveness in order to have reasonable cognition and/or social behaviour.

The nature of data set [4]: Example 2 case study: child with ADHD on methylphenidate, then Periactin (height, weight, percentiles, attentiveness). The conditions noted are these: for height percentile compared to girls their age / weight percentile compared to girls their age / weight: methylphenidate. An excerpt:
Case study: A child was presented by their parents for symptoms of attention deficit hyperactivity disorder. Their size at evaluation was 4′1¾″ and 50 lbs, corresponding to the 81st and 50th percentiles when compared to girls their age. […] At three months following the initiation of treatment for ADHD, the child was 4′2⅞″ and 50½ lbs, corresponding to the 85th and 34rd percentiles when compared to girls their age. At one year, they were 4′4⅜″ and 53 lbs, corresponding to the 84th and 36th percentiles when compared to girls their age. At two years they were 4′5¾″ and 54 lbs, corresponding to the 72nd and 17th percentiles when compared to girls their age. At four years of treatment they were 4′7⅜″ and 59 lbs, corresponding to 70th and 14th percentiles when compared to girls their age. At five years of treatment they were 4′9⅞″ and 64½ lbs, corresponding to 59th and 7th percentiles when compared to girls their age.
The child was then prescribed Periactin at a dosage of 2 mg b.i.d. to attempt to stimulate appetite. The dose was taken in the morning and then in the afternoon. After one year they were 4′11½″ and 72½ lbs, corresponding to 33rd and 5th percentiles when compared to girls their age. The child was then prescribed Periactin at a dose of 4 mg b.i.d. After two months on this dose, they were 5′¼″ and 76 lbs, corresponding to 37th and 8th percentiles when compared to girls their age. At 8 months on this dose, they were 5′½″ and 80 lbs, corresponding to 41st and 8th percentiles when compared to girls their age. At one year on this dose, they were 5′2¾″ and 89½ lbs, corresponding to 51st and 17th percentiles when compared to girls their age. At 18 months on this dose, they were 5′3⅝″ and 99½ lbs, corresponding to 56th and 30th percentiles when compared to girls their age. Additionally, the attentiveness of the child increase following the prescription of Periactin as they increased their food intake during the day.

Where [5] appears, read: Patient E, Concerta 27 mg then Focalin XR 10-15 mg alone, FIG. 12.
The mark [6] stands for this setting: various forms of methylphenidate.

For `COC(=O)C(c1ccccc1)C1CCCCN1` (centres unmarked) [Concerta, methylphenidate], the CGI-S score amounted to 4 in data set [1] (Patient A, Concerta 18 mg alone, constant for almost 400 days, FIG. 5); 5 in data set [1] (Patient C, Concerta 36 mg alone, FIG. 9); 6 in data set [1] (Patient D, Concerta 18 mg before combination, FIG. 11). Further, the weight course entry was “began to lose weight again” in data set [2] (Patient A, Concerta 18 mg alone, from about day 371, FIG. 4); “little weight gain followed by weight loss” in data set [2] (Patient C, Concerta 36 mg alone, FIG. 8); “did not increase substantively” in data set [2] (setting [5]).
Turning to `COC(=O)C(c1ccccc1)C1CCCCN1` (centres unmarked) [Daytrana patch, methylphenidate], the CGI-S score in data set [1] (Patient F, Daytrana patch 15 mg (day 469), 20 mg (day 606), FIG. 15) is recorded as 5.
In the case of `COC(=O)[C@H](c1ccccc1)[C@H]1CCCCN1` [Focalin XR, dexmethylphenidate], the CGI-S score in data set [1] (Patient E, Focalin XR 10 mg (before dose increase), FIG. 13) is reported as 6; in data set [1] (Patient E, Focalin XR 15 mg from day 162, FIG. 13) it was 5; in data set [1] (Patient G, Focalin XR 15 mg alone (dropped from 5), FIG. 17), 4. Further, the weight course result in data set [2] (Patient B, Focalin XR 10 mg then 15 mg alone, FIG. 6) is “slow and then became slightly erratic”; in data set [2] (setting [5]) it was “did not increase substantively”.
Regarding `COC(=O)C(c1ccccc1)C1CCCCN1` (centres unmarked) [Ritalin LA, methylphenidate], the CGI-S score in data set [1] (Patient F, Ritalin LA 20 mg and Focalin 5 mg, FIG. 15) stood at 7; in data set [1] (Patient F, Ritalin LA 30 mg and Focalin 5 mg from day 46, FIG. 15) it was 6. Also, in data set [2] (Patient F, Ritalin LA with Focalin, then Daytrana patch, without Periactin, FIG. 14), the weight course entry was “did not increase substantively”.
For `C[C@@H](Cc1ccccc1)NC(=O)[C@@H](N)CCCCN` [Vvyanase, lisdexamfetamine], the CGI-S score in data set [1] (Patient H, Vvyanase 40 mg alone (dropped from 6), FIG. 19) is reported as 5. In data set [2] (Patient H, Vvyanase 40 mg alone, FIG. 18), the weight course entry is listed as “little weight gain”.
With `CC(N)Cc1ccccc1` (centres unmarked) [amphetamine], the “attentiveness as measured by CGI-S and CGI-I” value in data set [3] (amphetamine once a day alone) is reported as “lack of attentiveness”. In addition, in data set [3] (amphetamine once a day alone, FIG. 1), the “glucose level measured in the blood” value is “drops”. Besides, in data set [3] (amphetamine once a day in the morning or afternoon, alone), the appetite result is “loss of appetite”.
On to `COC(=O)C(c1ccccc1)C1CCCCN1` (centres unmarked) [methylphenidate], for which the “height percentile compared to girls their age” value came to 59 percentile in data set [4] (five years); 70 percentile in data set [4] (four years); 84 percentile in data set [4] (one year); 85 percentile in data set [4] (three months); 72 percentile in data set [4] (two years). Also, the “weight percentile compared to girls their age” value in data set [4] (five years) was 7 percentile; in data set [4] (four years), 14 percentile; in data set [4] (one year), 36 percentile; in data set [4] (three months), 34 percentile; in data set [4] (two years), 17 percentile. Moreover, the values for the weight in data set [4] (four years of treatment), in data set [4] (one year) and in data set [4] (two years) were 59 lbs, 53 lbs and 54 lbs, respectively. In data set [4] (setting [6]), the “response of ADHD to treatment” value is “responded well”. In addition, the side-effect entry in data set [4] (setting [6]) is “suppression of appetite and a lack of significant weight gain”.
